Active and inactive are the calls of the source.
Experiments:
[1] = system: Vero; test: host cell cytotoxicity of antiviral hits, dose response, cytotoxicity control for West Nile virus antiviral project, secondary assay (AID 1650); format: functional; details: Chlorocebus sabaeus
[2] = molecular target: T1, Heat shock factor protein 1 (Mus musculus, UniProt P38532); test: HSF1 potentiators in luciferase reporter cells, confirmation, cell-based, NIH3T3, luminescence, dose retest (AID 435004); format: functional;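 note: stress induced by proteasome inhibitor MG132 added 30 min after compound; luciferase reporter driven by HSF1 response element in NIH3T3 cells; actives raise luminescence as potentiators of the MG132 stress response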
T1 sequence (P38532 whole entry): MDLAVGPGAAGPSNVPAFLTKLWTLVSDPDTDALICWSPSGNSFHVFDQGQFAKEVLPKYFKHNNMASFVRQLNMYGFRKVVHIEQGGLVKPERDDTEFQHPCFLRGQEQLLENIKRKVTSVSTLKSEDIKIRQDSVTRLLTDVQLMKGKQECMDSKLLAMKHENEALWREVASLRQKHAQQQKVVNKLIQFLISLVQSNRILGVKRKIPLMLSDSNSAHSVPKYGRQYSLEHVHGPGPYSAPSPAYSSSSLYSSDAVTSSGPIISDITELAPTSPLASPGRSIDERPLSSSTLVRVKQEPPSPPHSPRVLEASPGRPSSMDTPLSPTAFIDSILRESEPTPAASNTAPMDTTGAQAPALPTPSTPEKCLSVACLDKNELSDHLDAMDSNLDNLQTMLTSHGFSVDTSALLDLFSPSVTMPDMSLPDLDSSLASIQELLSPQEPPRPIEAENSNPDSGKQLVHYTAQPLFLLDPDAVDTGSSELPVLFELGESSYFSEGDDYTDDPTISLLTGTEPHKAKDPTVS

[3] = Intein inhibitors as potential Tuberculosis drugs, a cytotoxicity screen. [Related pubchem assays (depositor defined):AID2221, AID2223, AID434968, AID435010, AID449749, AID449750, AID489010]; format: functional
[4] = molecular target: T2, Replicative DNA helicase DnaB (Mycobacterium tuberculosis, UniProt P9WMR3); test: DnaB intein splicing inhibitors, dose response, biochemical, cell-free fluorescence (AID 449749); format: functional
T2 sequence (P9WMR3 whole entry): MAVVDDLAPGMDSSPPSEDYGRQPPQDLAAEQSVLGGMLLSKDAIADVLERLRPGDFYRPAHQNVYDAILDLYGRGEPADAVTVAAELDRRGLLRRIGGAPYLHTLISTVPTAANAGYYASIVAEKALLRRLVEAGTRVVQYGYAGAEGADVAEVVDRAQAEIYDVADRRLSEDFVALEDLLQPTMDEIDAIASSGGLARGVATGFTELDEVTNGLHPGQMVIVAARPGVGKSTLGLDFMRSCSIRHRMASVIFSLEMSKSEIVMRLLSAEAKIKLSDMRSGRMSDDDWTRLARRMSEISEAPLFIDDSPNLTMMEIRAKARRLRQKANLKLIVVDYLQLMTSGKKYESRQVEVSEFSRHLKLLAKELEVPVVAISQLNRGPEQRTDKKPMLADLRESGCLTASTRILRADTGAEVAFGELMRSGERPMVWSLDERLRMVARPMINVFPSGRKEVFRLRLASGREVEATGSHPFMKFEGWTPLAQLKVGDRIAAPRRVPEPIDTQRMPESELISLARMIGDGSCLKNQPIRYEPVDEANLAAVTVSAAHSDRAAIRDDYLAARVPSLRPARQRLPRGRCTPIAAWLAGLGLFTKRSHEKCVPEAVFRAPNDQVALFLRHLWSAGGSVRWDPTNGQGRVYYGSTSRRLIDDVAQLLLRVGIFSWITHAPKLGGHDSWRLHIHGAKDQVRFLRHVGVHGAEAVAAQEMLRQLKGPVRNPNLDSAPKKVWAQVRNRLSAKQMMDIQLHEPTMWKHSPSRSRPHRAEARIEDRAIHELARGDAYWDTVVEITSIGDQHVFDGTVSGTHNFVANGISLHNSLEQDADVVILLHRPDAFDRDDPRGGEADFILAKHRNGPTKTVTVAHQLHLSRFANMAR

[5] = molecular target: T3, Protein RecA (Mycobacterium tuberculosis, UniProt P9WHJ3); test: Fluorescence Cell-Free Homogeneous Dose Retest to Identify Inhibitors of RecA-Intein Splicing Activity. [Related pubchem assays (depositor defined):AID2097, AID2223, AID489010, AID492950]; format: functional
T3 sequence (P9WHJ3 whole entry): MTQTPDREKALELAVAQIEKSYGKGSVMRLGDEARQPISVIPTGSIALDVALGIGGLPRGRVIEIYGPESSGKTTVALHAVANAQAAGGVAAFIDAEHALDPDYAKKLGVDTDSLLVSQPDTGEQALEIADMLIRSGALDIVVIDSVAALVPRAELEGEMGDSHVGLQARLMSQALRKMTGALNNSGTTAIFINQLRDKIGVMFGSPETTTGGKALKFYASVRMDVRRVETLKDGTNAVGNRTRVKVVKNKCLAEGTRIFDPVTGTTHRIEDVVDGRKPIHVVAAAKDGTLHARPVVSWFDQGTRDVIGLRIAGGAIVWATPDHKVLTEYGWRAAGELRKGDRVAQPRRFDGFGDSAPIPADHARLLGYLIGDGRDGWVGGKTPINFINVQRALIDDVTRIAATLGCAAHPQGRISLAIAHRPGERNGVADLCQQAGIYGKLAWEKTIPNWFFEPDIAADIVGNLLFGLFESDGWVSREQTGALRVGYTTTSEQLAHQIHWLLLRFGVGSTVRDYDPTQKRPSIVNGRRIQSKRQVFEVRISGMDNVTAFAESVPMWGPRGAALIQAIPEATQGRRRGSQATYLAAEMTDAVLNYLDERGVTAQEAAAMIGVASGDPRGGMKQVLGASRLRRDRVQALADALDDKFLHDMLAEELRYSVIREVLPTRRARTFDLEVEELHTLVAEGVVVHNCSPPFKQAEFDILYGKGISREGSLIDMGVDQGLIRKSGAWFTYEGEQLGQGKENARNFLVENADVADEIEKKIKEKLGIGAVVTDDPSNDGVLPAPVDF

[6] = molecular target: Paired box protein Pax-8 (Homo sapiens, UniProt Q06710); test: inhibitors of PAX8-driven TPO luciferase reporter, dose response, RMG-I cells, cherry-pick (AID 687027); format: functional, cell-based;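 note: luciferase reporter driven by Pax8 target thyroperoxidase promoter measured by SteadyGlo luminescence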
[7] = non-specific cell cytotoxicity, dose response, cytotoxicity control for PAX8 inhibitor project, plate reader, dry powder samples (AID 743021); format: functional, cell-based
[8] = molecular target: Alkaline phosphatase, placental type (Homo sapiens, UniProt P05187); test: PLAP enzyme inhibitors, confirmation, biochemical, luminescence (AID 1512); format: functional
[9] = molecular target: T4, Alkaline phosphatase, tissue-nonspecific isozyme (Homo sapiens, UniProt P05186); test: human TNAP enzyme inhibitors, SAR follow-up, biochemical, luminescent, dose response (AID 1056)
T4 sequence (P05186 whole entry): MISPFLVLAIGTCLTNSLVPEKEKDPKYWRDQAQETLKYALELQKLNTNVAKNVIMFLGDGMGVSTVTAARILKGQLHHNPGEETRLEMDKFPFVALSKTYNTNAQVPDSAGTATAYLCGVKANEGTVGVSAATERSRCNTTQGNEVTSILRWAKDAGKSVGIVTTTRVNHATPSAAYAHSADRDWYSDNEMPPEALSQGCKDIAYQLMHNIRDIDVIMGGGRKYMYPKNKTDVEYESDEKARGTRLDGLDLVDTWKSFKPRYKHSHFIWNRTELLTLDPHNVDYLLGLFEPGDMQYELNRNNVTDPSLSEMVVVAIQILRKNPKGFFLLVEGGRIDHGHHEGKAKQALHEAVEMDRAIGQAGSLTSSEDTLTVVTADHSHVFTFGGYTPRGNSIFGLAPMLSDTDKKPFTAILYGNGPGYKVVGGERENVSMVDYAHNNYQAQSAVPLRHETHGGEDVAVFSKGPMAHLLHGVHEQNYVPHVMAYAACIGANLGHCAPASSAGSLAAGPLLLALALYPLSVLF

[10] = insulin promoter down-regulators in MIN6 cells, imaging, high-content screening, mouse beta cells (AID 1628); format: functional
[11] = cytotoxicity in MIN6 insulinoma cells, dose response, cytotoxicity control, cell-based, mouse insulinoma (AID 2122); format: functional;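 note: confirmatory high-throughput counterscreen run to flag cytotoxic compounds; mouse MIN-6 beta cells carrying an insulin promoter eGFP reporter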
[12] = molecular target: Tumor necrosis factor (Homo sapiens, UniProt P01375); test: TNFa-triggered NF-kB activation inhibitors, SAR follow-up, cell-based, revised (AID 2337); format: functional
[13] = molecular target: Nucleotide-binding oligomerization domain-containing protein 1 (Homo sapiens, UniProt Q9Y239); test: NOD1 signaling inhibitors, SAR follow-up, revised (AID 2333); format: functional
[14] = cytotoxicity in HEK-293T cells, dose response, cytotoxicity control for TCR NF-kB inhibitor project, luminescence, T-cell screen hits (AID 489026); format: functional, cell-based;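 note: cells exposed to compound about 14 hours before the viability readout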
[15] = Shn3 3'UTR reporter inhibitors, dose response, cell-based, Clone20 osteoblasts, firefly luciferase, cherry-picked (AID 624132); format: functional;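 note: firefly luciferase luminescence from reporter carrying the Shn3 3'UTR in osteoblasts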
[16] = HepG2 cell cytotoxicity, dose response, cytotoxicity control for Shn3 inhibitor project, CellTiter-Glo, cherry-picked (AID 624134); format: functional, cell-based
[17] = control 3'UTR Renilla luciferase suppression, dose response, counter-screen for Shn3 inhibitor project, cell-based, Clone20-Shn3RL, cherry-picked (AID 624133); format: functional
[18] = system: HEK293; test: cells; details: Homo sapiens;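 note: cells exposed to compound for 14 hours overnight before viability readout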
[19] = system: BJ; test: cytotoxicity toward BJ-TERT fibroblasts, dose response, cell-based, RAS-independent, luminescence (AID 1933); format: functional; details: Homo sapiens
[20] = system: BJ; test: cells; format: functional, cell-based; details: Homo sapiens
[21] = system: BJ; test: cytotoxicity toward BJ-TERT-LT-ST fibroblasts, dose response, cell-based, RAS-independent, luminescence (AID 1935); format: functional; details: Homo sapiens;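 note: BJ fibroblasts immortalized with TERT plus LT and ST oncogenes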
[22] = cytotoxicity toward DRD oncogenic fibroblasts, dose response, cell-based, non-viral oncogenic, luminescence (AID 1934); format: functional; details: Homo sapiens
[23] = molecular target: T5, Hexokinase HKDC1 (Homo sapiens, UniProt Q2TB90); test: HKDC1 hexokinase inhibitors, dose response, biochemical, W721R variant (AID 504729); format: functional
T5 sequence (Q2TB90 whole entry): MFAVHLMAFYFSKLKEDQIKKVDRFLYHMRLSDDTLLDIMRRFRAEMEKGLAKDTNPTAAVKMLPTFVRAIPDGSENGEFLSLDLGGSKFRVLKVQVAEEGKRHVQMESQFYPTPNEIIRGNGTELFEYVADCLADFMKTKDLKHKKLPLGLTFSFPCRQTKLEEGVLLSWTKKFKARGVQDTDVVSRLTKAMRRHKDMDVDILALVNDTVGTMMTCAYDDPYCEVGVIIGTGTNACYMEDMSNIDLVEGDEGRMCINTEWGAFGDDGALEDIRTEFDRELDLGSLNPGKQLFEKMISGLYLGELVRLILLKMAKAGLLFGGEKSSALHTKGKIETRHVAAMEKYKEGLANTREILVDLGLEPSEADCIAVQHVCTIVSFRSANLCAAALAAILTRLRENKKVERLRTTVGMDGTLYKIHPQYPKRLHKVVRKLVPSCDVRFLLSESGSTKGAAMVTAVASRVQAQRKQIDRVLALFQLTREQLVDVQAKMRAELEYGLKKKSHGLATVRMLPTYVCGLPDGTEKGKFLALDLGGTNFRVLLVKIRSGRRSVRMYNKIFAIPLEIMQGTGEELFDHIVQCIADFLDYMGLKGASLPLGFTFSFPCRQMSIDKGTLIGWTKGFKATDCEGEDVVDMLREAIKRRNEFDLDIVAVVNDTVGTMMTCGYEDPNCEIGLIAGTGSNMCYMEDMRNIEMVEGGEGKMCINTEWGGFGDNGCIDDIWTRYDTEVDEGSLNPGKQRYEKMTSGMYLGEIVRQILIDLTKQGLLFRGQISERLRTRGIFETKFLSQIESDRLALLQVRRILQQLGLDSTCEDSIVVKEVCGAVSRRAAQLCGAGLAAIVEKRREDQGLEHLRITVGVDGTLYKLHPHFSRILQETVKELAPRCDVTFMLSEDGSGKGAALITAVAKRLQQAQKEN

[24] = molecular target: Glyceraldehyde-3-phosphate dehydrogenase (Homo sapiens, UniProt P04406)
Chain of Glyceraldehyde-3-phosphate dehydrogenase (P04406 whole entry): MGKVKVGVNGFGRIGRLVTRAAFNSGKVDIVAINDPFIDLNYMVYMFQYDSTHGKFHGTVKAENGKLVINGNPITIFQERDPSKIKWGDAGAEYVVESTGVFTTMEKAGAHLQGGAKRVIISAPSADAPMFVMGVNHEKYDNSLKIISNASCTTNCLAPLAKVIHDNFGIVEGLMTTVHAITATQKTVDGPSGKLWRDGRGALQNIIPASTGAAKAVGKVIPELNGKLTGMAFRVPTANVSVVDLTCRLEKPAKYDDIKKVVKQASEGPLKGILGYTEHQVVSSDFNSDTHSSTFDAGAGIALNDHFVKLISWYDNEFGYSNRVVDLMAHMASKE

Chain of Paired box protein Pax-8 (Q06710 whole entry): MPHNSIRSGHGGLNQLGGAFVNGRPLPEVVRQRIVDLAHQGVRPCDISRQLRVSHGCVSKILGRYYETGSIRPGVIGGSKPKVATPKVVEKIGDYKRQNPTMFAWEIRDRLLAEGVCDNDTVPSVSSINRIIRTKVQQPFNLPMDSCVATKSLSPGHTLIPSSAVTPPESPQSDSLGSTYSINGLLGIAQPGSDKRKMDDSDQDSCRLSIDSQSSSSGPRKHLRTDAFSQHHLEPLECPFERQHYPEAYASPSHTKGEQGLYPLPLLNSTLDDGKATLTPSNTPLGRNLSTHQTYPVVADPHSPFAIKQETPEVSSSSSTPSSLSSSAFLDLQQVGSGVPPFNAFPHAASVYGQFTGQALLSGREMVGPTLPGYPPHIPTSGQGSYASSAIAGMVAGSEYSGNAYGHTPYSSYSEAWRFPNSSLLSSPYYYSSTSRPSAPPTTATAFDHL
Chain of Tumor necrosis factor (P01375 whole entry, the tested form may be a part): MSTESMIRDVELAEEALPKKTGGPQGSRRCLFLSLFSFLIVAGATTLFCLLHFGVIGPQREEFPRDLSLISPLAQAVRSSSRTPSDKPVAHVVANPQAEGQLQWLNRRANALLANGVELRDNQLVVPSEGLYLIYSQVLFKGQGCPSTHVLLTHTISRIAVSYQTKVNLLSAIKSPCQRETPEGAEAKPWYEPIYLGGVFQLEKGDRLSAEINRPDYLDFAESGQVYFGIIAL
Chain of Nucleotide-binding oligomerization domain-containing protein 1 (Q9Y239 whole entry, the tested form may be a part): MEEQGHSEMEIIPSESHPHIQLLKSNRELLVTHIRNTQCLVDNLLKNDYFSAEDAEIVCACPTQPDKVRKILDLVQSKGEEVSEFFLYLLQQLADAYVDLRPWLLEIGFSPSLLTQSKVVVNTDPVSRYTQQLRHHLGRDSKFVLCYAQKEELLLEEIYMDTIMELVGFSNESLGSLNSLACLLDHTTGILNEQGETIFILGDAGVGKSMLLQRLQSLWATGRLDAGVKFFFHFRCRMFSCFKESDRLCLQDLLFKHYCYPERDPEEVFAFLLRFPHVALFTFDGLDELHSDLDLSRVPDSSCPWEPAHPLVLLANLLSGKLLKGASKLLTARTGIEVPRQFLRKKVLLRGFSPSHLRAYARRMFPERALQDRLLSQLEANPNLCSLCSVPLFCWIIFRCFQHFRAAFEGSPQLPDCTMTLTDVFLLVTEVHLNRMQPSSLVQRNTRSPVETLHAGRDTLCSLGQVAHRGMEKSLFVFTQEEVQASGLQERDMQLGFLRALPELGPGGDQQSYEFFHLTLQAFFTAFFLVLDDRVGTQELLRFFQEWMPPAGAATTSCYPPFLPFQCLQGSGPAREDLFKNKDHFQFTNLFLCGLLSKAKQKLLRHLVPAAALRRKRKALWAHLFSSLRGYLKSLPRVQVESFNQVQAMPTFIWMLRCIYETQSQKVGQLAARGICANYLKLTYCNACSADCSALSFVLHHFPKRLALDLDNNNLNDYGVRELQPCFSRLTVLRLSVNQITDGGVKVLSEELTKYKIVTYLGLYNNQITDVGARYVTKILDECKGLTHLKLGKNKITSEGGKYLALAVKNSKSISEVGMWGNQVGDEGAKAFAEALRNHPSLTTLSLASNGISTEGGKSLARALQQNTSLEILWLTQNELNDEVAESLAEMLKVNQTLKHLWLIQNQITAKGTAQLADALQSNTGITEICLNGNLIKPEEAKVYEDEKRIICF
Chain of Alkaline phosphatase, placental type (P05187 whole entry): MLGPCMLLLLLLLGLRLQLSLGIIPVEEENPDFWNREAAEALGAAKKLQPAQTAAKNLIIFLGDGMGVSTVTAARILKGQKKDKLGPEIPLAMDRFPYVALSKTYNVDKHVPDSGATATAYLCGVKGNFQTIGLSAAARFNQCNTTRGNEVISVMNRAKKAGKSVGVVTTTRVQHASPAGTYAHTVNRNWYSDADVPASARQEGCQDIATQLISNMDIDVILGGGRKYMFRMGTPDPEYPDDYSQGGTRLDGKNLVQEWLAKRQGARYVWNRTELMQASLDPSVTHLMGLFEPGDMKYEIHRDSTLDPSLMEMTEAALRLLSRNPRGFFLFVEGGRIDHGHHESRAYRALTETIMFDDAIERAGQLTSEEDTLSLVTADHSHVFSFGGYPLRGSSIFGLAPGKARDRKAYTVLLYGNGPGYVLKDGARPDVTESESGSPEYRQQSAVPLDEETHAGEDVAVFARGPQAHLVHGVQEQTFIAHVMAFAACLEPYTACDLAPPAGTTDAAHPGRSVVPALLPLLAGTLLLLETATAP

With Cc1ccc(N(NC(=O)C(O)(c2ccccc2)c2ccccc2)C(=O)CCl)cc1 the CC50 [1] was 6.32 µM (active), the EC50 [2] was > 260 µM (inconclusive) and the CC50 [3] was 7.46 µM (active). For the same compound, the AC50 [4] was 4.45 µM (active), the EC50 [5] was 0.529 µM (active) and the AC50 [6] was 8.18 µM (active). The AC50 [7] was 11.8 µM (active).
For Cc1cc(C)nc(SCC(=O)c2cccc(O)c2)n1, the IC50 [8] was > 100 µM (inactive) and the IC50 [9] was > 100 µM (inactive).
For O=C(Nc1ccc(S(=O)(=O)N2CCCC2)cc1)c1ccc(CN2CCc3ccccc3C2)cc1, the IC50 [10] was 0.707 µM (active), the IC50 [11] was 0.576 µM (active) and the IC50 [12] was 0.639 µM (active). The IC50 [13] was 0.418 µM (active), the IC50 [14] was > 80 µM (inactive) and the AC50 [15] was 0.575 µM (active). For the same compound, the AC50 [16] was 0.292 µM (active), the AC50 [17] was 0.406 µM (active) and the IC50 [18] was 6.77 µM (active).
For CC(=O)n1cc(N(C(=O)CCl)c2ccc([N+](=O)[O-])cc2)c2ccccc21, the EC50 [19] was 2.65 µM (inconclusive), the EC50 [20] was 2.59 µM (inconclusive) and the EC50 [21] was 4.78 µM (inconclusive). The EC50 [22] was 2.63 µM (inconclusive), the CC50 [3] was 12.3 µM (active) and the IC50 [23] was 27 µM (inactive). For the same compound, the AC50 [4] was 1.59 µM (active) and the EC50 [5] was 0.358 µM (active).
With O=S(=O)(Nc1ccc2ccccc2c1)c1ccccc1 the IC50 [24] was > 100 µM (not active) and the IC50 [9] was > 100 µM (inactive).

From ChEMBL document CHEMBL1201862, “PubChem BioAssay data set” (2004)
